# In ChEMBL document CHEMBL1139052, “Synthesis of a novel inhibitor against MRSA and VRE: preparation from zerumbone ring opening material showing histidine-kinase inhibition” (Bioorg Med Chem Lett, 2007):
# “And” between values parts separate entries of the source, which are not always exact repeats. Equal values may be shown once.
# Columns and labels:
# Staphylococcus aureus = assay: Antibacterial activity against methicillin-resistant staphylococcus aureus 870307 after 18 hrs by broth microdilution method; assay type: functional
# [1] = target: T1, Sensor histidine kinase WalK (Bacillus subtilis (strain 168), UniProt Q45614); assay: Inhibition of Bacillus subtilis histidine kinase YycG
# T1 sequence (Q45614 whole entry): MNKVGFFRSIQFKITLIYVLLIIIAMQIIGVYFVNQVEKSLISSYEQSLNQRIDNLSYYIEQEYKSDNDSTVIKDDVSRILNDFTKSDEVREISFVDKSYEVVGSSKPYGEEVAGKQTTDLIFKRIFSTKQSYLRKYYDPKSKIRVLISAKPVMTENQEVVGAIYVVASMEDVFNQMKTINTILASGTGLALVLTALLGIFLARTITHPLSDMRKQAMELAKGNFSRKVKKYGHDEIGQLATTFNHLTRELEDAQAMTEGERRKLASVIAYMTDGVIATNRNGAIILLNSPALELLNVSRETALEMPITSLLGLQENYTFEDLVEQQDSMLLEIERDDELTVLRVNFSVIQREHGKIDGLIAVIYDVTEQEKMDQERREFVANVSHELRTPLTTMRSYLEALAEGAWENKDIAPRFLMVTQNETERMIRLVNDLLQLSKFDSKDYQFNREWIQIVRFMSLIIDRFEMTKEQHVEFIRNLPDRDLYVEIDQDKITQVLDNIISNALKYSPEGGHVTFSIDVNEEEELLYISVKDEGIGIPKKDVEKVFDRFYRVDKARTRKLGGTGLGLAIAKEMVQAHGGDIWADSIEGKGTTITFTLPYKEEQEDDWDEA
# Enterococcus faecalis = assay: Antibacterial activity against vancomycin-resistant Enterococcus faecalis NCTC-12201 after 18 hrs by broth microdilution method; assay type: functional
SMILES,MIC (Staphylococcus aureus) [µg/mL],IC50 [1],MIC (Enterococcus faecalis) [µg/mL]
CCCCCCCCN(CCCCCCCC)C(=O)/C=C/C(C)(C)C/C=C(\C)CC/C=C(\C)Br,> 100,> 928 µM,> 100
C/C(Br)=C\CC/C(C)=C/CC(C)(C)/C=C/C(=O)N1CCCCC1,> 100,> 1310 µM,> 100
COC(=O)[C@H](C)NC(=O)/C=C/C(C)(C)C/C=C(\C)CC/C=C(\C)Br,> 100,> 1250 µM,> 100
C/C(Br)=C\CC/C(C)=C/CC(C)(C)/C=C/C(=O)O,> 100,63.4 µM and 63.5 µM,> 100
C/C(Br)=C\CC/C(C)=C/CC(C)(C)/C=C/CO,> 100,> 1660 µM,> 100
COC(=O)/C=C/C(C)(C)C/C=C(\C)CC/C=C(\C)Br,> 100,> 1520 µM,> 100
CCCCCCCCOC(=O)/C=C/C(C)(C)C/C=C(\C)CC/C=C(\C)Br,> 100,> 1170 µM,> 100
C/C(Br)=C\CC/C(C)=C/CC(C)(C)/C=C/C(=O)N[C@@H](Cc1ccc(O)cc1)C(=O)O,> 100,< 523 µM,> 100
C/C(Br)=C\CC/C(C)=C/CC(C)(C)/C=C/C(=O)N[C@@H](CC(=O)O)C(=O)O,> 100,< 581 µM,> 100
C/C(Br)=C\CC/C(C)=C/CC(C)(C)/C=C/C(=O)N[C@@H](CCC(=O)O)C(=O)O,> 100,< 563 µM,> 100
COC(=O)[C@H](Cc1ccccc1)NC(=O)/C=C/C(C)(C)C/C=C(\C)CC/C=C(\C)Br,> 100,> 1050 µM,> 100
C/C(Br)=C\CC/C(C)=C/CC(C)(C)/C=C/C(=O)N[C@@H](CC(C)C)C(=O)O,> 100,> 1170 µM,> 100
COC(=O)[C@@H]1CCCN1C(=O)/C=C/C(C)(C)C/C=C(\C)CC/C=C(\C)Br,> 100,< 586 µM,> 100
CC[C@H](C)[C@H](NC(=O)/C=C/C(C)(C)C/C=C(\C)CC/C=C(\C)Br)C(=O)O,> 100,> 1170 µM,> 100
C/C(Br)=C\CC/C(C)=C/CC(C)(C)/C=C/C(=O)N1CCC[C@H]1C(=O)O,> 100,< 606 µM,> 100
C/C(Br)=C\CC/C(C)=C/CC(C)(C)/C=C/C(=O)N[C@@H](C)C(=O)O,> 100,< 647 µM,> 100
COC(=O)[C@H](CC(C)C)NC(=O)/C=C/C(C)(C)C/C=C(\C)CC/C=C(\C)Br,> 100,> 1130 µM,> 100
CC[C@H](C)[C@H](NC(=O)/C=C/C(C)(C)C/C=C(\C)CC/C=C(\C)Br)C(=O)OC,> 100,> 1130 µM,> 100
C/C(Br)=C\CC/C(C)=C/CC(C)(C)/C=C/C(=O)NCC(=O)O,> 100,< 671 µM,> 100
COC(=O)[C@H](CC(N)=O)NC(=O)/C=C/C(C)(C)C/C=C(\C)CC/C=C(\C)Br,> 100,1130 µM,> 100
COC(=O)[C@H](CCC(N)=O)NC(=O)/C=C/C(C)(C)C/C=C(\C)CC/C=C(\C)Br,> 100,1090 µM,> 100

SMILES,MIC (Staphylococcus aureus) [µg/mL],IC50 [1],MIC (Enterococcus faecalis) [µg/mL]
COC(=O)[C@H](CC(=O)O)NC(=O)/C=C/C(C)(C)C/C=C(\C)CC/C=C(\C)Br,> 100,> 1130 µM,> 100
COC(=O)[C@H](CCC(=O)O)NC(=O)/C=C/C(C)(C)C/C=C(\C)CC/C=C(\C)Br,> 100,> 1090 µM,> 100
CSCC[C@H](NC(=O)/C=C/C(C)(C)C/C=C(\C)CC/C=C(\C)Br)C(=O)O,> 100,< 560 µM,> 100
C/C(Br)=C\CC/C(C)=C/CC(C)(C)/C=C/C(=O)N[C@@H](CO)C(=O)O,> 100,< 621 µM,> 100
C/C(Br)=C\CC/C(C)=C/CC(C)(C)/C=C/C(=O)N[C@H](C(=O)O)[C@@H](C)O,> 100,> 1200 µM,> 100
COC(=O)CNC(=O)/C=C/C(C)(C)C/C=C(\C)CC/C=C(\C)Br,> 100,> 1290 µM,> 100
C/C(Br)=C\CC/C(C)=C/CC(C)(C)/C=C/C(=O)N[C@@H](Cc1c[nH]c2ccccc12)C(=O)O,100,43.9 µM,50
C/C(Br)=C\CC/C(C)=C/CC(C)(C)/C=C/C(=O)N[C@@H](Cc1cnc[nH]1)C(=O)O,> 100,< 553 µM,> 100
CCCCN(CCCC)C(=O)/C=C/C(C)(C)C/C=C(\C)CC/C=C(\C)Br,> 100,> 1170 µM,> 100
C/C(Br)=C\CC/C(C)=C/CC(C)(C)/C=C/C(=O)N[C@@H](Cc1ccccc1)C(=O)O,> 100,< 541 µM,> 100
C/C(Br)=C\CC/C(C)=C/CC(C)(C)/C=C/C(=O)N[C@@H](CCC(N)=O)C(=O)O,> 100,< 564 µM,> 100
COC(=O)[C@H](CCSC)NC(=O)/C=C/C(C)(C)C/C=C(\C)CC/C=C(\C)Br,> 100,> 1090 µM,> 100
COC(=O)[C@@H](NC(=O)/C=C/C(C)(C)C/C=C(\C)CC/C=C(\C)Br)C(C)C,> 100,> 1170 µM,> 100
COC(=O)[C@@H](NC(=O)/C=C/C(C)(C)C/C=C(\C)CC/C=C(\C)Br)[C@@H](C)O,> 100,> 1160 µM,> 100
C/C(Br)=C\CC/C(C)=C/CC(C)(C)/C=C/C(=O)N[C@H](C(=O)O)C(C)C,> 100,< 603 µM,> 100
COC(=O)[C@H](Cc1ccc(O)cc1)NC(=O)/C=C/C(C)(C)C/C=C(\C)CC/C=C(\C)Br,> 100,> 1020 µM,> 100
COC(=O)[C@H](Cc1cnc[nH]1)NC(=O)/C=C/C(C)(C)C/C=C(\C)CC/C=C(\C)Br,> 100,> 1070 µM,> 100
COC(=O)[C@H](Cc1c[nH]c2ccccc12)NC(=O)/C=C/C(C)(C)C/C=C(\C)CC/C=C(\C)Br,> 100,> 970 µM,> 100
C/C(Br)=C\CC/C(C)=C/CC(C)(C)/C=C/C(=O)N[C@@H](CC(N)=O)C(=O)O,> 100,< 582 µM,> 100
COC(=O)[C@H](CO)NC(=O)/C=C/C(C)(C)C/C=C(\C)CC/C=C(\C)Br,> 100,< 600 µM,> 100
C/C1=C\CC(C)(C)/C=C/C(=O)/C(C)=C/CC1 [ZERUMBONE],> 100,> 2290 µM,> 100
